For data set [1] the following is noted: TGA; mixture of water, dicamba-DGA and water conditioning agent at field-use concentrations. An excerpt:
A comparison of the increase in auxin herbicide volatility in various water conditioning agents was done by preparing mixtures of water, herbicide (dicamba diglycolamine (DGA) salt in this case), and water conditioning agent. Concentration of the solutions mimics actual agricultural field-use concentrations. In this test, done using thermogravimetric analysis (TGA), a comparison was made between a control (dicamba-DGA alone) to dicamba-DGA plus a water conditioning agent.

Data set [2] can be described thus: Compatibility with glyphosate herbicide solution. Type of data set: physicochemical. The note with it: 950 g water with 1000 ppm calcium, 30 g MEA sulfate solution, 20 g ROUNDUP ULTRA MAX. The procedure: A mixture of 950 grams water containing 1000 ppm calcium, 30 grams of the MEA sulfate solution from Example 1, and 20 grams of ROUNDUP ULTRA® MAX herbicide (The Scotts Company LLC of Marysville, Ohio) was prepared.

A further data set deals with amaranth. Nature of the data set: Field trial, water conditioning effect with glyphosate, visual injury. Type of data set: in vivo. Particulars: for % Control 2 Weeks Post Treatment, Mean / % Control 4 Weeks Post Treatment, Mean: mean of 3 plots; for % Control 2 Weeks Post Treatment / % Control 4 Weeks Post Treatment: single plots. The procedure: (§1) A field trial was conducted to compare the efficacy of the herbicide glyphosate (diluted to less than its label use rate with distilled water or water containing 1000 ppm (calcium+magnesium)), with or without water conditioning agents of the present disclosure. In this trial, the glyphosate-containing spray was applied to flax, amaranth, sunflower and corn. The glyphosate used in this field trial was Touchdown® HT herbicide and its spray application rate was kept constant at 9.6 fl oz/a. A non-ionic surfactant (Activator 90 surfactant) was also applied with the herbicide at a constant spray application rate of 0.5% v/v. Finally, the water conditioning agents of the present disclosure, when present, were applied at spray application rates of 0.75% v/v and 1.0% v/v. Flax, amaranth, sunflower and corn, which had been plotted at various locations throughout the field, were spray treated and visually assessed on a particular day after treatment for injury on a scale of 0 to 100%, with zero representing “no” injury and 100% representing “complete” injury or death. The water conditioning agents tested during this trial included: […]

The next data set deals with corn. Described as above. The class given is in vivo. Particulars: for % Control 2 Weeks Post Treatment, Mean / % Control 4 Weeks Post Treatment, Mean: mean of 3 plots; for % Control 2 Weeks Post Treatment / % Control 4 Weeks Post Treatment: single plots. The protocol:
as §1

The subject of another data set is flax. Described as above. The class given is in vivo. Particulars: for % Control 2 Weeks Post Treatment, Mean / % Control 4 Weeks Post Treatment, Mean: mean of 3 plots; for % Control 2 Weeks Post Treatment / % Control 4 Weeks Post Treatment: single plots. The protocol: as §1
The next data set relates to sunflower. Described as above. The class given is in vivo. Particulars: for % Control 2 Weeks Post Treatment, Mean / % Control 4 Weeks Post Treatment, Mean: mean of 3 plots; for % Control 2 Weeks Post Treatment / % Control 4 Weeks Post Treatment: single plots. The procedure:
as §1

Setting [3] is: glyphosate in hard water + non-ionic surfactant + sulfate at 0.75% v/v.
Where [4] appears, read: glyphosate in hard water + non-ionic surfactant + sulfate at 1.0% v/v.
[5] abbreviates: glyphosate in distilled water + non-ionic surfactant.
The mark [6] stands for this setting: glyphosate in hard water + non-ionic surfactant, no water conditioner.

Where “and” joins values, the source holds several entries; their conditions need not be identical. Equal values may be shown once.

Consider 3 molecules from patent US11096389B2, “Alkanolamine sulfate water conditioners” (Indorama Ventures Oxides LLC, priority 2014, dated 2021).

For the molecule `COc1c(Cl)ccc(Cl)c1C(=O)O` [Dicamba-DGA, 3,6-dichloro-2-methoxybenzoic acid], the “Relative Volatility” value in data set [1] worked out at 0.01185.
monoethanolamine sulfate [Sulfate 1]: in data set [2], the “physical and chemical compatibility with glyphosate-containing formulation” value is “clear, homogenous solution”. The “% Control 2 Weeks Post Treatment, Mean” value came out at 72.7% in the data set on amaranth (setting [3]); 81.7% with amaranth (setting [4]); 68.7% in the data set on corn (setting [3]); 77.7% with corn (setting [4]); 51.7% with flax (setting [3]); 48.3% in the data set with flax (setting [4]). The “% Control 2 Weeks Post Treatment, Mean” value amounted to 71% with sunflower (setting [3]) and 85% with sunflower (setting [4]). The “% Control 4 Weeks Post Treatment, Mean” value in the data set with amaranth (setting [3]) was 72.7%; in the data set with amaranth (setting [4]), 71.7%; in the data set with corn (setting [3]) it was 79.3%; in the data set on corn (setting [4]), 86%; in the data set with flax (setting [3]), 51.7%; with flax (setting [4]), 48.3%. Moreover, the entries for the “% Control 4 Weeks Post Treatment, Mean” value with sunflower (setting [3]) and in the data set on sunflower (setting [4]) were 71% and 80%, respectively. Further, the “% Control 2 Weeks Post Treatment” value is 75% and 68% in the data set on amaranth (setting [3]); 80% and 85% with amaranth (setting [4]); 68% and 70% in the data set with corn (setting [3]); 80% and 75% and 78% in the data set on corn (setting [4]); 45% and 50% and 60% in the data set on flax (setting [3]); 55% and 45% with flax (setting [4]). Also, the “% Control 2 Weeks Post Treatment” value with sunflower (setting [3]) is 70% and 75% and 68%; in the data set with sunflower (setting [4]), 85%. For the same molecule, the “% Control 4 Weeks Post Treatment” value in the data set on amaranth (setting [3]) was 75% and 68%; in the data set on amaranth (setting [4]), 70% and 75%; with corn (setting [3]), 80% and 78%; in the data set on corn (setting [4]) it was 88% and 85%; in the data set with flax (setting [3]) it was 45% and 50% and 60%; with flax (setting [4]) it was 55% and 45%. Besides, the “% Control 4 Weeks Post Treatment” value in the data set with sunflower (setting [3]) was 70% and 75% and 68%; in the data set on sunflower (setting [4]), 80%.
With `O=C(O)CNCP(=O)(O)O` [Glyphosate, N-(phosphonomethyl) glycine, reference compound], the “% Control 2 Weeks Post Treatment, Mean” value with amaranth (setting [5]) was found to be 53.3%; in the data set on amaranth (setting [6]), 33.3%; with corn (setting [5]), 53.3%; in the data set with corn (setting [6]), 33.3%; in the data set on flax (setting [5]), 53.3%; in the data set with flax (setting [6]), 33.3%. The “% Control 2 Weeks Post Treatment, Mean” value was 53.3% with sunflower (setting [5]) and 33.3% with sunflower (setting [6]). The “% Control 4 Weeks Post Treatment, Mean” value in the data set on amaranth (setting [5]) is reported as 56.7%; in the data set with amaranth (setting [6]) it was 33.3%; in the data set on corn (setting [5]), 56.7%; with corn (setting [6]), 33.3%; in the data set on flax (setting [5]), 56.7%; in the data set on flax (setting [6]), 33.3%. The figures for the “% Control 4 Weeks Post Treatment, Mean” value with sunflower (setting [5]) and in the data set on sunflower (setting [6]) were 56.7% and 33.3%, respectively. Moreover, the “% Control 2 Weeks Post Treatment” value with amaranth (setting [5]) is 50% and 60%; in the data set on amaranth (setting [6]), 30% and 35%; in the data set on corn (setting [5]), 50% and 60%; in the data set on corn (setting [6]) it was 30% and 35%; with flax (setting [5]) it was 50% and 60%; in the data set with flax (setting [6]) it was 30% and 35%. The “% Control 2 Weeks Post Treatment” value with sunflower (setting [5]) is 50% and 60%; in the data set on sunflower (setting [6]), 30% and 35%. In addition, the “% Control 4 Weeks Post Treatment” value in the data set with amaranth (setting [5]) is 55% and 60%; in the data set on amaranth (setting [6]), 30% and 35%; in the data set on corn (setting [5]) it was 55% and 60%; in the data set with corn (setting [6]) it was 30% and 35%; in the data set with flax (setting [5]) it was 55% and 60%; in the data set on flax (setting [6]) it was 30% and 35%. For the same molecule, the “% Control 4 Weeks Post Treatment” value in the data set with sunflower (setting [5]) is 55% and 60%; with sunflower (setting [6]), 30% and 35%.
